From patent US20060135587A1, “Method and compounds for promoting healing and reducing inflammation” (priority 2002, published 2006)

Tests used:
[1] = test system: acute Con A-induced inflammation; assay: Acute Con A-induced inflammation (paw oedema) in mice; format: in vivo
[2] = test system: liver after partial hepatectomy; assay: Morphological study of the liver after partial hepatectomy; format: in vivo, rats; conditions: one week after hepatectomy
Procedure: Morphological methods are highly informative in the assessment of repair processes. Histological tests of the liver after partial hepatectomy were performed using generally accepted methods. Microscopic sections were stained with hematoxylin and eosin using Van Gieson's methodology. Liver tests after partial hepatectomy were performed on 8 groups of animals, totalling 37 rats. All animals were examined one week after hepatectomy.

[3] = test system: myocardial infarction; assay: Clinical trial in subacute myocardial infarction and cardiac insufficiency (Example 23); format: in vivo, human
Procedure: A clinical trial of Compound 2 was carried out on 100 patients aged from 25 to 75 years during the subacute period of myocardial infarction. Each patient continued to receive the treatment which s/he had been given prior to commencement of the trial. Compound 2 was administered in addition to the previous treatment. A control group received conventional treatment, ie. nitrate, anticoagulants and/or hypotensive agents as appropriate. The results of treatment of these two groups were compared with groups of patients receiving riboxine and placebo. Compound 2 was administered over a period of three weeks from the 7th to 28th days following infarction, and was administered orally at a dose of three 0.2 g tablets per day.
The effects of treatment were monitored by 12-lead electrocardiography, using the QRS Scoring System. Haemodynamic parameters and the contractile function of the myocardium were monitored using a Toshiba ultrasound camera model SSH-60A, using conventional methods.
The effect of Compound 2 was also studied in 25 patients aged 43 to 66 years suffering from cardiac insufficiency, in comparison with riboxine or a placebo.

[4] = test system: myocardial infarction; assay: Clinical comparison of Compound 2 and Riboxin in subacute myocardial infarction (Example 25); format: in vivo, human
Procedure: A total of 94 patients were examined; of these:
Conventional therapy as for example 24 was given to 30 patients. Each patient continued to receive the treatment which s/he had been given prior to commencement of the trial. Compound 2 was administered in addition to the previous treatment.
All the patients underwent standard laboratory tests prior to commencement of Compound 2 therapy, 14 days after the beginning of the course and upon completion of the course. The tests included clinical blood analysis; general urine analysis; evaluation of creatinine, bilirubin, transaminase activity, blood sugar, cholesterol and β-lipoproteins, malonic dialdehyde, Schiff bases, zinc, iron, copper, plasma potassium and sodium, prothrombin and fibrinogen; and an ECG examination in dynamics.
All the patients received conventional therapy, i.e. nitrates, anticoagulants and/or hypotensive agents as appropriate.
Combination therapy included Compound 2 (1st group—32 patients) or Riboxin (2nd group—18 patients). The agents were administered at a dose of 200 mg three times per day.

[5] = test system: chronic active viral hepatitis; assay: Clinical study in chronic active viral hepatitis; format: in vivo, human; conditions: 600 mg a day orally
Procedure: 45 patients aged between 18 and 32 years old with chronic active viral hepatitis were divided into 4 groups and kept under observation. All patients had received conventional therapy, usually potassium orotate, riboxin and interferon prior to commencement of the trial.
The first group (10 patients) received conventional therapy for 20 days. Assessment of clinical and biochemical indicators and serology data was carried out repeatedly for 20 days after the beginning of treatment.
The second group (10 patients) received both conventional treatment and prednisolone at a dose of […] for 20 days. In this group the clinical-biochemical and serological analysis took place before the treatment, and 10 days and 20 days after the beginning of treatment.
The third group (10 patients) received both conventional treatment and Compound 2 administered orally at a dose of 600 mg a day for 20 days. The control clinical-biochemical and serological analysis was carried out 20 days after the beginning of treatment.
The fourth group (15 patients) received prednisolone either orally or intravenously at a dose of 15 mg a day for 10 days; then prednisolone was stopped and replaced by Compound 2 at a dose of 600 mg a day for 10 days. […]

[6] = test system: bone plate defect; assay: Repair of bone plate defect of the rat lower jaw; format: in vivo, rats; conditions: 50 mg/kg over the course of three months
Procedure: A round or oval defect of the bone plate with a diameter of 2.5 mm was produced in the bone tissue of the rat lower jaw, using a dental drill under ether anaesthesia. In the post-operative period, the animals were kept in separate cages, with normal food and water ad libitum. The experiments were performed on 130 male rats weighing 180-200 g, with 10 rats in each group.
The animal test groups were treated with Compound 2 (50 or 100 mg/kg) or methyl uracil (50 mg/kg) 24 hours after the damage and on a daily basis for three months. […] The following groups were used:
The repair pattern of the injured bone was assessed morphologically on tissue sections after 30, 60 and 90 days. The sections were examined by light microscopy at magnifications of ×15, ×100, ×200, and ×400.

[7] = Table 4, 0.005M dose (Compound 2 19 mg/kg, Compound 7 16.4 mg/kg) + Con A
[8] = Table 4, 0.01M dose (Compound 2 38 mg/kg, Compound 7 32 mg/kg) + Con A
[9] = Table 4, 0.015M dose (Compound 2 57 mg/kg, Compound 7 49 mg/kg) + Con A
[10] = Table 4, 0.02M dose (Compound 2 76 mg/kg, Compound 7 65.6 mg/kg) + Con A
[11] = 200 mg three times per day plus conventional therapy
[12] = patients with repeated myocardial infarct

CC[n+]1cn(C)c(C(=O)NC)c1C(=O)NC.O=S(=O)([O-])c1ccccc1 [Compound 2, 1-methyl-3-ethyl-4,5-bis(N-methylcarbamoyl)-imidazolium benzenesulfonate]
Reaction index (%) ([1]; Table 3, 10 mg/kg intra-peritoneally one hour before Con A, male CBA mice): 10.4 ± 2.0 %
Reaction index (%) ([1]; Table 3, 50 mg/kg intra-peritoneally one hour before Con A, male CBA mice): 8.4 ± 0.9 %
Paw oedema reduction (%) [1, 7]: 66%
Reaction index (%) [1, 7]: 5.4 ± 2.0%
Paw oedema reduction (%) [1, 8]: 52%
Reaction index (%) [1, 8]: 7.7 ± 1.8%
Paw oedema reduction (%) ([1]; Table 4, 10 mg/kg + Con A): 33%
Reaction index (%) ([1]; Table 4, 10 mg/kg + Con A): 11.1 ± 3.5%
Paw oedema reduction (%) [1, 9]: 66%
Reaction index (%) [1, 9]: 5.3 ± 2.0%
Paw oedema reduction (%) [1, 10]: 77%
Reaction index (%) [1, 10]: 3.3 ± 2.0%
ED50, dose reducing paw oedema by 50% one hour after injection of Concanavalin A ([1]; male mice): 33 mg/kg
histological findings in the liver ([2]; 0.1 MM/kg): showed no undesirable effects
histological findings in the liver ([2]; 0.2 MM/kg): some of the animals demonstrated hepatocyte hypertrophy combined with subacute hepatitis
side effects ([3]; both patient groups): No side effects were observed in either group
recovery of the contractile function of the myocardium versus placebo or riboxine ([3]; myocardial infarction patients, three 0.2 g tablets per day orally, 7th to 28th day): recovery of the contractile function of the myocardium was more rapid
progression of cardiac insufficiency ([3]; patients suffering from cardiac insufficiency): prevented the progression of the condition
cholesterol levels [4, 11]: 96.5%
level of prothrombin [4, 11]: 91.3%
ejection fraction ([4]; 200 mg three times per day plus conventional therapy, 54.4±1.5% in the absence of the agent): 60.0±0.5%
malonic dialdehyde ([4]; 21st day, 1.3 before treatment, normal 1.21): 1 nmol/mL
superoxide dismutase levels ([4]; after therapy, 18-20 before treatment, norm 23): 25 conventional units
level of Schiff bases ([4]; after therapy, 75 before treatment, normal 60): 40 conventional units
allergic reactions or side effects ([4]; human, in vivo): did not develop any allergic reactions or side effects
cases in which cicatrisation took place one or two days earlier [4, 12]: 90%
time of cicatrisation on the average [4, 12]: 27 days
clinical picture and biochemical indicators [5]: improves the clinical picture and normalizes biochemical indicators
closing of bone defect [6]: the defect was almost fully closed by the newly formed primary callus bone tissue
